The source of these data is patent US9109004B2, “Progesterone receptor antagonists” (Bayer Intellectual Property GmbH, priority 2010, dated 2015).

For data set [1], the target named is T1, human progesterone receptor A (Homo sapiens, UniProt P06401).
T1 construct: expressed in transfected cells; host or cells: SK-N-MC human neuroblastoma cells, stably transfected
T1 sequence (P06401 1-769 isoform P06401-2): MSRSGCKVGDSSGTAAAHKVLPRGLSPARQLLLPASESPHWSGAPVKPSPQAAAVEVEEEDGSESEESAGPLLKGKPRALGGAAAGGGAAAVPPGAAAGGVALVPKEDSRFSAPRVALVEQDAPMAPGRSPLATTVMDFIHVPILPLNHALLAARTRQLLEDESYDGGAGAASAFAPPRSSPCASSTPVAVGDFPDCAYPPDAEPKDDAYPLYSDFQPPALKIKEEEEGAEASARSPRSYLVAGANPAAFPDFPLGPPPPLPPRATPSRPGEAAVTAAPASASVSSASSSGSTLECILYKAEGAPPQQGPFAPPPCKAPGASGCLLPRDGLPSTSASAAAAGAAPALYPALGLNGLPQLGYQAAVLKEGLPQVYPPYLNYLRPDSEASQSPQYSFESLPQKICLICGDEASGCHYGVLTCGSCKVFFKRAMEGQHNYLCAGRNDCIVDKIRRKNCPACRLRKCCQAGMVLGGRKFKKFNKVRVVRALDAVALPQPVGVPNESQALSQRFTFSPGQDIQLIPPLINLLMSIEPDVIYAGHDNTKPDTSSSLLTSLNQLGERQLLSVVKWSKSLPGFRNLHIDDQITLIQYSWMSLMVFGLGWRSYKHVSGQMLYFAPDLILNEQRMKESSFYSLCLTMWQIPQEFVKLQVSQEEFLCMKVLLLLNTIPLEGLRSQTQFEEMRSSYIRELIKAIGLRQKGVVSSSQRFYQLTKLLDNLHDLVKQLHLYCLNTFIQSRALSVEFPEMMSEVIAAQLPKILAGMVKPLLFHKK
Kind of data set: Progesterone-receptor-antagonistic action in stably transfected SK-N-MC cells, MTV-LUC reporter (PR-A). It counts as cell-based. The note with it: antagonistic potency vs 0.1 nmol/l promegestone, 24 hours, luciferase. The essentials: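 SK-N-MC neuroblastoma cells stably expressing human PR-B or PR-A plus MMTV-LUC reporter, treated 24 h with 0.1 nmol/l promegestone plus test compound at 0.01 nmol/l–1 μmol/l. Luciferase in lysates read as RLU; values as % efficacy and IC50.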

A further data set deals with pregnant rats. Kind of data set: Test as abortifacient in female rats (termination of early pregnancy). The data set is classed as in vivo, rat. The settings on record: d5-d7 p.c., autopsy d9 p.c. How it is done: Test as Abortifacient in Female Rats
The antagonistic action of the compounds according to the invention was tested on pregnant rats (6 rats per group) on day 5 to 7 post coitum in conventional conditions of husbandry and feeding.
After successful mating, the pregnant animals (presence of sperm in the vaginal smear on day 1 of pregnancy=d1 p.c.) were randomized and were divided into the treatment group and the control group. The animals then received, subcutaneously or orally, in each case 0.15; 0.5; 1.5 or 5 mg/kg of the test compound or 1.0 ml/kg of vehicle (benzyl benzoate/castor oil: 1+4 [v/v]) daily from day 5 to day 7 (d5-d7 p.c.).
Autopsy was carried out on day 9 (d9 p.c.). For characterization of progesterone-receptor-antagonistic action, the uterus was investigated for the presence of nidation sites. Complete absence, but also the presence of pathological, haemorrhagic or otherwise abnormal nidation sites on day 9 (d9 p.c.) was assessed as abortion.

The nature of data set [2]: Metabolic stability in human liver microsomes (HLM). The note with it: from HLM half-life, well-stirred model, phase I reactions; 1 μM test compound. It counts as in vitro ADME. How it is done: Metabolic stability of 4-[(11β,17β)-17-hydroxy-3-oxo-17-(pentafluoro-ethyl)estra-4,9-dien-11-yl]benzamide and 4′-[(11β,17β)-17-hydroxy-3-oxo-17-(pentafluoro-ethyl)estra-4,9-dien-11-yl]biphenyl-4-carboxamide in human liver microsomes (HLM) Isolated human liver microsomes (HLM) were used for assessing the metabolic stability of compounds of general formula I. The incubations were carried out with 2.4 ml HLM solution (0.5 mg/ml protein content), 30 μl of the test compound (final concentration 1 μM) and 0.6 ml of the cofactor mixture (=NADPH-generating system of 3 IU glucose-6-phosphate dehydrogenase, 14.6 mg glucose-6-phosphate, 1.2 mg NADP) at 37° C. in 100 mM phosphate buffer at pH 7.4. Samples are taken at 6 time points (2-60 min), precipitated with an equal volume of methanol, and the recovery of the test substances used in the supernatant is determined by LC-MS/MS analysis. The intrinsic clearance of the substance in the liver microsome assay can be calculated from the value found for the half-life of substance breakdown. Using this, on the basis of various physiological characteristics according to the well-stirred model it is possible to predict a (metabolic) in-vivo clearance with respect to phase I reactions.
Background: Liver microsomes are vesicles of endoplasmic reticulum, rich in cytochrome P450 enzymes.

With `C[C@]12C[C@H](c3ccc(-c4ccc(C(N)=O)cc4)cc3)C3=C4CCC(=O)C=C4CC[C@H]3[C@@H]1CC[C@@]2(O)C(F)(F)C(F)(F)F` [Example 79, 4′-[(11β,17β)-17-Hydroxy-3-oxo-17-(pentafluoroethyl)estra-4,9-dien-11-yl]biphenyl-4-carboxamide], the IC50 – broadly, the concentration needed to halve the response being measured – in data set [1] stood at 10 pM. For the same compound, the Abortion rate with pregnant rats (daily dose 0.5 mg/kg p.o.), with pregnant rats (daily dose 1.5 mg/kg p.o.) and in the data set on pregnant rats (daily dose 5.0 mg/kg p.o.) was 100% throughout. For the same compound, the “(metabolic) in-vivo clearance in humans predicted” value in data set [2] was 3.5 mL/min/kg.
